For the assay, the system named is HepG2 cells. Put plainly: Ketogenic activity in HepG2 cells (ketone levels in cell supernatants). Type of assay: cell-based. Conditions: each component 2.4 mM, glucose-free media, up to 135 minutes, FIG. 1. The protocol: In this Example, the ketogenic activities of various compositions were tested in HepG2 cells. More particularly, the ketogenic activity of butyric acid (2.4 mM) (“BA”) alone; beta-hydroxybutyrate (2.4 mM) (“BHB”) alone; caprylic acid (2.4 mM) (“CA”) alone; caprylic acid (2.4 mM) combined with butyric acid (2.4 mM); and a combination of caprylic acid (2.4 mM), butyric acid (2.4 mM), and beta-hydroxybutyrate (2.4 mM) were all tested in HepG2 cells. Each compound (or combination of compounds) was added to a solvent containing glucose-free media that included 10% fetal bovine serum (FBX), 1 mM sodium pyruvate, and 1 mM glutamine.
Each test composition was administered to HepG2 cells in a cell culture plate. Each composition was tested with three replicates. Ketone levels in the HepG2 cell supernatants were measured at the time of administration (time=0) and every 45 minutes thereafter, up to 135 minutes. The results are presented as the difference between the ketone concentration that was measured at each time point (i.e., measured every 45 minutes) and the ketone concentration that was measured at time=0 for each test composition, such that any positive measurement indicates an increase in ketone levels from the baseline time=0 measurement.

In the case of `CCCCCCCC(=O)O` [caprylic acid, caprylic acid (octanoic acid)], the “induction of ketogenesis (generation of ketones)” value is “neither butyric acid alone, nor caprylic acid alone, was shown to induce ketogenesis”. Next, `CCCC(=O)O` [butyric acid]: “neither butyric acid alone, nor caprylic acid alone, was shown to induce ketogenesis”.

The values above are taken from patent publication US20250195460A1, “MEDIUM CHAIN TRIGLYCERIDE AND SHORT CHAIN FATTY ACID COMPOSITIONS & METHODS OF USE THEREOF” (priority 2023, published 2025).
